Reference: patent US10954262B2, “Tunicamycin analogues” (Oxford University Innovation Limited, priority 2017, dated 2021)
Converted amounts (≈) assume the structure as drawn. Counter-ions that a name gives are not always drawn. Like-named read-outs stand apart in the source and are kept apart here.

Tests used:
[1] = tested on: Pseudomonas aeruginosa (ATCC27853); test: Kirby-Bauer disc diffusion susceptibility test; assay type: cell-based; conditions: 6 mm disc, 5 μg
Experimental: (§1) Bioactivity was assessed using the Kirby-Bauer disc diffusion susceptibility test. Oxoid Blank Discs were impregnated with the desired test substance. A 0.5 McFarland standard inoculum was prepared by adding 3-5 single colonies to 10 mL MH broth in a 15 mL falcon tube and standardised to 0.5 McFarland standard. The inoculum was used within 10 minutes. A sterile cotton swab was dipped in the inoculum, gently pressed against the side of the tube to remove excess liquid, and generously streaked on MH agar plate to fully cover the plate. The impregnated disc was carefully placed on the agar. The plate was incubated at 35° C. for 20 hrs overnight. A digital calliper was used to measure the zone diameter. The recorded zone diameter is an average of three zone diameters measured of one zone.
(§2) Each 6 mm disc was impregnated with 5 μg of the relevant compound (TM, A, B, C, D, or any of E1 to E7), and the diffusion zone recorded after 20 hours.
Underlying scaffolds A, B, C and D and lipid-varied analogues E1 to E7 were assayed for potency against Pseudomonas aeruginosa (ATCC27853), according to the methods of Example 2. Results of the Kirby-Bauer disc diffusion susceptibility test conducted using Pseudomonas aeruginosa (ATCC27853) as a test organism are shown in FIG. 2 and in Table 3. MIC, MBC and IC50 values were also obtained as in Example 2.

[2] = tested on: Bacillus subtilis (EC1524); test: microbe, parasite or virus in culture; assay type: cell-based; conditions: for MIC: MH broth, 35° C., 20-24 hours; for IC50: OD600 dose-response curve; for MBC: additional 20 hours on MH agar
[3] = tested on: Bacillus cereus (ATCC11778); test: microbe, parasite or virus in culture; assay type: cell-based; conditions: for MIC: MH broth, 35° C., 20-24 hours; for IC50: OD600 dose-response curve; for MBC: additional 20 hours on MH agar
[4] = tested on: Pseudomonas aeruginosa (ATCC27853); test: microbe, parasite or virus in culture; assay type: cell-based
HEK293 kidney cells = test: Cell proliferation assay / cell morphology (cytotoxicity); assay type: cell-based, human; conditions: for Minimum lethal dose: HEK293; for viable cells: human
Experimental: (§3) Underlying scaffolds A, B, C and D and lipid-varied analogues E1 to E7 were assayed for cytotoxicity towards human liver cells (Hep2G) and human kidney cells (HEK293).
(§4) Mammalian cells were cultured in DMEM medium supplemented with 10% heat inactivated fetal bovine serum (FBS, v/v). The cultures were maintained in a humidified incubator at 37° C. in 5% CO2/95% air. FBS was reduced to 2% for the cell proliferation assay.
(§5) In sterile 96-well plate, each well was seeded with 1×10^5 cells. The cells were then grown confluent overnight in 100 μL DMEM with 10% FBS. The medium was replenished with DMEM with 2% FBS and added vehicle control or test substance the next day. For test substance in methanol, stock was added to 25 μL of DMEM with 2% FBS or PBS and placed in a laminar flow hood to let the methanol evaporate (about 1-3 hrs). Once the methanol has evaporated, DMEM with 2% FBS was added to final volume of 100 μL of desired test concentration. […] Cells were grown for additional 24 hrs. The cell viability was determined by using a Promega CellTiter 96 AQueous One Solution Cell Proliferation Assay System following the manufacturer's protocol.

HepG2 liver cells = test: as above; assay type: cell-based, human; conditions: for Minimum lethal dose: HepG2; for viable cells: human
Experimental: as §3, §4, §5

[5] = tested on: Bacillus subtilis (EC1524); test: Kirby-Bauer disc diffusion susceptibility test; assay type: cell-based; conditions: for Antibacterial activity in disc diffusion test: 5 μg per disc; for zone of inhibition at 5 µg/disc: 6 mm disc impregnated with 5 μg, 20 hours, 35° C., read-out: Diffusion distance (zone diameter)
Experimental: as §1, §2
(§6) Results are shown for E2 to E7 and TM. Values quoted are zone diameters, with larger numbers indicating higher antibacterial activity.

[6] = tested on: Bacillus cereus (ATCC11778); test: Kirby-Bauer disc diffusion susceptibility test; assay type: cell-based; conditions: for Antibacterial activity in disc diffusion test: 5 μg per disc; for zone of inhibition at 5 µg/disc: ATCC11778, 6 mm disc impregnated with 5 μg, 20 hours, 35° C., read-out: Diffusion distance (zone diameter)
Experimental: as §1, §2, §6

[7] = tested on: Mycobacterium tuberculosis H37RV; test: MIC in GAST/Fe and 7H9/ADC/Tw growth medium at 1 and 2 weeks; assay type: cell-based; conditions: for MIC: Mycobacterium tuberculosis, H37RV

Row | SMILES | Diffusion distance [1] [mm] | MIC [2] [µg/mL] | IC50 [2] [µg/mL] | MBC [2] [µg/mL] | MIC [3] [µg/mL] | IC50 [3] [µg/mL] | MBC [3] [µg/mL] | IC50 [4] [µg/mL] | MBC [4] [µg/mL] | MIC [4] [µg/mL] | Minimum lethal dose (HEK293 kidney cells) [µg/mL] | viable cells (HEK293 kidney cells) [%] | Minimum lethal dose (HepG2 liver cells) [µg/mL] | viable cells (HepG2 liver cells) [%] | Antibacterial activity in disc diffusion test [5] | Antibacterial activity in disc diffusion test [6] | zone of inhibition at 5 µg/disc [5] [mm] | zone of inhibition at 5 µg/disc [6] [mm] | further results
1 | CCCCCCCCCCCC(=O)NC1C(OC2OC(C[C@@H](O)[C@H]3O[C@@H](n4ccc(=O)[nH]c4=O)[C@H](O)[C@@H]3O)C(O)C(O)[C@H]2NC(=O)CCCCCCCCCCC)OC(CO)[C@@H](O)C1O (stereo partly shown) [Compound E7, Di-N-dodecanoyl-tunicamycin] | 8 | 100 (≈ 107 µM) | 58.9 (≈ 63.2 µM) | > 200 | 50 (≈ 53.7 µM) | 1.4 (≈ 1.51 µM) | > 200 | 81.9 (≈ 88 µM) | > 400 | 200 (≈ 215 µM) | >400 | > 75 | >400 | > 75 | – | – | – | – | –
2 | CC(=O)N[C@H]1C(O)O[C@H](C[C@@H](O)[C@@H]2O[C@@H](n3ccc(=O)[nH]c3=O)[C@H](O)[C@@H]2O)C(O)C1O (stereo partly shown) [A, N-acetyl-tunicamyl-uracil] | – | – | – | – | – | – | – | – | – | – | – | – | – | – | completely inactive | completely inactive | – | – | –
3 | CCCCCCC(=O)NC1C(OC2OC(C[C@@H](O)[C@H]3O[C@@H](n4ccc(=O)[nH]c4=O)[C@H](O)[C@@H]3O)C(O)C(O)[C@H]2NC(=O)CCCCCC)OC(CO)[C@@H](O)C1O (stereo partly shown) [Compound E2, Di-N-heptanoyl tunicamycin] | 7 | 6.25 (≈ 7.9 µM) | 3.39 (≈ 4.29 µM) | > 50 | 100 (≈ 126 µM) | 13.3 (≈ 16.9 µM) | > 200 | 62.4 (≈ 79 µM) | > 400 | 100 (≈ 126 µM) | >400 | > 75 | >400 | > 75 | – | – | 10 | – | –
4 | CCCCCCCCC(=O)NC1C(OC2OC(C[C@@H](O)[C@H]3O[C@@H](n4ccc(=O)[nH]c4=O)[C@H](O)[C@@H]3O)C(O)C(O)[C@H]2NC(=O)CCCCCCCC)OC(CO)[C@@H](O)C1O (stereo partly shown) [Compound E4, Di-N-nonanoyl-tunicamycin] | 13 | 0.024 (≈ 0.0283 µM) | 0.0146 (≈ 0.0172 µM) | > 0.06 | 0.78 (≈ 0.921 µM) | 0.0723 (≈ 0.0854 µM) | 25 (≈ 29.5 µM) | 55 (≈ 64.9 µM) | 400 (≈ 472 µM) | 100 (≈ 118 µM) | >400 | > 75 | >400 | > 75 | – | – | 16 | 13 | MIC lower than naturally occurring tunicamycin TM ([7]; in some cases): approximately 5 fold
5 | CCCCCCCCCCC(=O)NC1C(OC2OC(C[C@@H](O)[C@H]3O[C@@H](n4ccc(=O)[nH]c4=O)[C@H](O)[C@@H]3O)C(O)C(O)[C@H]2NC(=O)CCCCCCCCCC)OC(CO)[C@@H](O)C1O (stereo partly shown) [Compound E6, Di-N-undecanoyl-tunicamycin] | 12 | 1.56 (≈ 1.73 µM) | 0.852 (≈ 0.943 µM) | > 6.25 | 0.78 (≈ 0.864 µM) | 0.0878 (≈ 0.0972 µM) | 25 (≈ 27.7 µM) | 63.2 (≈ 69.9 µM) | 400 (≈ 443 µM) | 100 (≈ 111 µM) | >400 | > 75 | >400 | > 75 | – | – | 6 | 7 | 1-week MIC [7]: 2.8 µg/mL; 2-week MIC [7]: 2.8 µg/mL; MIC ([7]; 168 h, read-out: 1-week MIC): 5.6 µg/mL (≈ 6.2 µM); MIC ([7]; 336 h, read-out: 2-week MIC): 5.6 µg/mL (≈ 6.2 µM)
6 | CC(=O)NC1C(O)[C@H](O)C(CO)O[C@@H]1OC1O[C@H](C[C@@H](O)[C@@H]2O[C@@H](n3ccc(=O)[nH]c3=O)[C@H](O)[C@@H]2O)C(O)C(O)[C@H]1NC(C)=O (stereo partly drawn) [C, α-D-N-acetylglucosamine-(1″-11′)-N-acetyl Tunicamyl Uracil] | – | – | – | – | – | – | – | – | – | – | – | – | – | – | completely inactive | completely inactive | – | – | –
7 | CCCCCCCCCC(=O)NC1C(OC2OC(C[C@@H](O)[C@H]3O[C@@H](n4ccc(=O)[nH]c4=O)[C@H](O)[C@@H]3O)C(O)C(O)[C@H]2NC(=O)CCCCCCCCC)OC(CO)[C@@H](O)C1O (stereo partly shown) [Compound E5, Di-N-decanoyl-tunicamycin] | 12 | 0.39 (≈ 0.446 µM) | 0.114 (≈ 0.13 µM) | > 0.39 | 0.39 (≈ 0.446 µM) | 0.0461 (≈ 0.0527 µM) | 12.5 (≈ 14.3 µM) | 53.5 (≈ 61.1 µM) | 400 (≈ 457 µM) | 100 (≈ 114 µM) | >400 | > 75 | >400 | > 75 | – | – | 10 | 9 | –
8 | NC1C(O)[C@H](O)C(CO)O[C@@H]1OC1O[C@H](C[C@@H](O)[C@@H]2O[C@@H](n3ccc(=O)[nH]c3=O)[C@H](O)[C@@H]2O)C(O)C(O)[C@H]1N (stereo partly drawn) [D, α-D-glucosamine-(1″-11′)-tunicamyl Uracil Dihydrochloride] | – | – | – | – | – | – | – | – | – | – | – | – | – | – | completely inactive | completely inactive | – | – | –
9 | CC(C)=CCC[C@H](C)CC(=O)NC1C(OC2OC(C[C@@H](O)[C@H]3O[C@@H](n4ccc(=O)[nH]c4=O)[C@H](O)[C@@H]3O)C(O)C(O)[C@H]2NC(=O)C[C@@H](C)CCC=C(C)C)OC(CO)[C@@H](O)C1O (stereo partly shown) [Compound E1, Di-N-citronoyl-tunicamycin] | – | 6.25 (≈ 7.18 µM) | 0.415 (≈ 0.476 µM) | > 100 | 100 (≈ 115 µM) | 6.29 (≈ 7.22 µM) | > 200 | 70.3 (≈ 80.7 µM) | > 400 | 200 (≈ 230 µM) | >400 | > 75 | >400 | > 75 | – | – | – | – | –
10 | CC(C)(C)OC(=O)NC1C(O)[C@H](O)C(CO)O[C@@H]1OC1O[C@H](C[C@@H](O)[C@@H]2O[C@@H](n3ccc(=O)[nH]c3=O)[C@H](O)[C@@H]2O)C(O)C(O)[C@H]1NC(=O)OC(C)(C)C (stereo partly drawn) [B, 10′,2″-Di-N-Boc-α-D-glucosamine-(1″-11′)-tunicamyl Uracil] | – | – | – | – | – | – | – | – | – | – | – | – | – | – | completely inactive | completely inactive | – | – | –
